Assay [1] relates to P. aeruginosa biofilms. Conditions: combination with ultrasound below 70 kHz; Qian et al. 1997; cited from earlier work.
Assay [2] has as its system Pseudomonas aeruginosa. Conditions: Pseudomonas aeruginosa versus Staphylococcus aureus; from EP 0 700 249 B1; cited from earlier work.
The conditions of assay [3]: use in wounds, albumin present; from EP 0 700 249 B1; cited from earlier work.
The conditions of assay [4]: own microbiological tests.

As to gentamicin, in assay [1], the “increase in effect versus antibiotic alone” value is recorded as over 250%.

For the substance “polyhexamethylene biguanide [polyhexanide]”, in assay [2], the “activity lower by a factor, in comparison with Staphylococcus aureus” value is about 10. Besides, the “loss of action caused by albumin (in wounds)” value in assay [3] is reported as “considerable loss of action”. Besides, the “loss of action by the factor (effect of albumin)” value in assay [4] is “about 10”.

These data come from patent US20100291041A1, “BACTERIOPHAGE PREPARATION AND USE” (INNOVATIONS-TRANSFER UPHOFF GMBH & CO. KG, priority 2008, published 2010).
